Test results taken from US9187497B2, “Substituted pyrido[3,2-e]pyrrolo[1,2-a]pyrazines as inhibitors of poly(ADP-ribose)polymerase (PARP)” (Takeda Phamaceutical Company Limited, priority 2009, dated 2015).

Each compound was assayed on Jurkat cell line (assay: PARP cellular chemopotentiation assay (MTS cell viability with and without TMZ)). Conditions: ratio of EC50 for inhibition of cell viability without and with 100 μM TMZ; Jurkat cells, 96 hours of treatment.
Type: cell-based
Method: Potentiation Factor (PF50) Determination from PARP Cellular Chemopotentiation Assay
Jurkat cell line was maintained according to the supplier (American Type Culture Collection (Rockville, Md.)). Cells were seeded in 96-well tissue culture microplates at 10,000 cells per well and cultured for 24 hours prior to addition of compounds, TMZ (Temozolomide) or DMSO (dimethylsulfoxide) vehicle. After 96 hours of treatment, the conversion of MTS ([3-(4,5-dimethylthiazol-2-yl)-5-(3-carboxymethoxyphenyl)-2-(4-sulfophenyl)-2H-tetrazolium, inner salt], Promega, Madison, Wis.) by metabolically active cells was determined through measuring the OD490 nm with a Spectramax microplate reader (Molecular Devices, San Diego, Calif.). To generate concentration-response curves, cells were treated in duplicate with a range of serial compound dilutions (final DMSO concentration was 0.5%) in the absence or presence of 100 μM TMZ chemoreagent. The percentage of viable cells per well was calculated by correction for background and normalizing against DMSO-treated cells. EC50 values for inhibition of cell viability were calculated using XLfit4 MicroSoft Excel curve-fitting software. Chemopotentiation factor PF50 was calculated as the ratio of EC50 values of cells co-treated without and with TMZ, respectively.
CCOC(=O)c1ccc(N2CCN(Cc3cnc4c(c3)NC(=O)[C@@H]3CCCN43)CC2)nc1 [Compound 6A, (S)-ethyl 6-(4-((6-oxo-5,6,6a,7,8,9-hexahydropyrido[3,2-e]pyrrolo[1,2-a]pyrazin-3-yl)methyl)piperazin-1-yl)nicotinate] was tested, and the PF50 was “≧0”. For CCNC(=O)c1ccc(N2CCN(Cc3cnc4c(c3)NC(=O)[C@@H]3CCCN43)CC2)nc1 [Compound 7, (S)—N-ethyl-6-(4-((6-oxo-5,6,6a,7,8,9-hexahydropyrido[3,2-e]pyrrolo[1,2-a]pyrazin-3-yl)methyl)piperazin-1-yl)nicotinamide], the PF50 was over 10. For O=C(NC1CC1)c1ccc(N2CCN(Cc3cnc4c(c3)NC(=O)[C@@H]3CCCN43)CC2)nc1 [Compound 8, (S)—N-cyclopropyl-6-(4-((6-oxo-5,6,6a,7,8,9-hexahydropyrido[3,2-e]pyrrolo[1,2-a]pyrazin-3-yl)methyl)piperazin-1-yl)nicotinamide], the PF50 was over 10. CC(C)NC(=O)c1ccc(N2CCN(Cc3cnc4c(c3)NC(=O)[C@@H]3CCCN43)CC2)nc1 [Compound 9, (S)—N-isopropyl-6-(4-((6-oxo-5,6,6a,7,8,9-hexahydropyrido[3,2-e]pyrrolo[1,2-a]pyrazin-3-yl)methyl)piperazin-1-yl)nicotinamide] was tested, and the PF50 was “≧0”. Work on O=C1Nc2cc(CN3CCN(c4ccc(F)cc4F)CC3)cnc2N2CCC[C@@H]12 [Compound 15, (S)-3-((4-(2,4-difluorophenyl)piperazin-1-yl)methyl)-6a,7,8,9-tetrahydropyrido[3,2-e]pyrrolo[1,2-a]pyrazin-6(5H)-one] yielded a PF50 of over 500. For N#Cc1ccc(N2CCN(Cc3cnc4c(c3)NC(=O)[C@@H]3CCCN43)CC2)c(F)c1F [Compound 18, (S)-2,3-difluoro-4-(4-((6-oxo-5,6,6a,7,8,9-hexahydropyrido[3,2-e]pyrrolo[1,2-a]pyrazin-3-yl)methyl)piperazin-1-yl)benzonitrile], the PF50 was over 10. For N#Cc1c(F)cc(N2CCN(Cc3cnc4c(c3)NC(=O)[C@@H]3CCCN43)CC2)cc1F [Compound 19, (S)-2,6-difluoro-4-(4-((6-oxo-5,6,6a,7,8,9-hexahydropyrido[3,2-e]pyrrolo[1,2-a]pyrazin-3-yl)methyl)piperazin-1-yl)benzonitrile], the PF50 was “≧0”. N#Cc1cc(F)c(N2CCN(Cc3cnc4c(c3)NC(=O)[C@@H]3CCCN43)CC2)c(F)c1 [Compound 20, (S)-3,5-difluoro-4-(4-((6-oxo-5,6,6a,7,8,9-hexahydropyrido[3,2-e]pyrrolo[1,2-a]pyrazin-3-yl)methyl)piperazin-1-yl)benzonitrile] was tested, and the PF50 was “≧0”. In the case of N#Cc1ncc(N2CCN(Cc3cnc4c(c3)NC(=O)[C@@H]3CCCN43)CC2)cc1F [Compound 22, (S)-3-fluoro-5-(4-((6-oxo-5,6,6a,7,8,9-hexahydropyrido[3,2-e]pyrrolo[1,2-a]pyrazin-3-yl)methyl)piperazin-1-yl)picolinonitrile], the PF50 is reported as over 10. In the case of O=C1Nc2cc(CN3CCN(c4ccccc4)CC3)cnc2N2CCC[C@@H]12 [Compound 23, (S)-3-((4-phenylpiperazin-1-yl)methyl)-6a,7,8,9-tetrahydropyrido[3,2-e]pyrrolo[1,2-a]pyrazin-6(5H)-one], the PF50 is reported as “≧0”. With CC(=O)c1ccc(N2CCN(Cc3cnc4c(c3)NC(=O)[C@@H]3CCCN43)CC2)cc1 [Compound 25, (S)-3-((4-(4-acetylphenyl)piperazin-1-yl)methyl)-6a,7,8,9-tetrahydropyrido[3,2-e]pyrrolo[1,2-a]pyrazin-6(5H)-one] the PF50 was “≧0”. Compound O=C1Nc2cc(CN3CCN(c4ccccn4)CC3)cnc2N2CCC[C@@H]12 [Compound 26, (S)-3-((4-(pyridin-2-yl)piperazin-1-yl)methyl)-6a,7,8,9-tetrahydropyrido[3,2-e]pyrrolo[1,2-a]pyrazin-6(5H)-one] has a PF50 of over 10. In the case of COc1ccc(N2CCN(Cc3cnc4c(c3)NC(=O)[C@@H]3CCCN43)CC2)cc1 [Compound 31, (S)-3-((4-(4-methoxyphenyl)piperazin-1-yl)methyl)-6a,7,8,9-tetrahydropyrido[3,2-e]pyrrolo[1,2-a]pyrazin-6(5H)-one], the PF50 is reported as “≧0”. With Cc1ccc(N2CCN(Cc3cnc4c(c3)NC(=O)[C@@H]3CCCN43)CC2)cc1 [Compound 32, (S)-3-((4-p-tolylpiperazin-1-yl)methyl)-6a,7,8,9-tetrahydropyrido[3,2-e]pyrrolo[1,2-a]pyrazin-6(5H)-one] the PF50 was “≧0”. O=C1Nc2cc(CN3CCN(c4cccc(O)c4)CC3)cnc2N2CCC[C@@H]12 [Compound 34, (S)-3-((4-(3-hydroxyphenyl)piperazin-1-yl)methyl)-6a,7,8,9-tetrahydropyrido[3,2-e]pyrrolo[1,2-a]pyrazin-6(5H)-one] was tested, and the PF50 was “≧0”. O=C1Nc2cc(CN3CCN(c4ccc(O)cc4)CC3)cnc2N2CCC[C@@H]12 [Compound 35, (S)-3-((4-(4-hydroxyphenyl)piperazin-1-yl)methyl)-6a,7,8,9-tetrahydropyrido[3,2-e]pyrrolo[1,2-a]pyrazin-6(5H)-one] was tested, and the PF50 was “≧0”. In the case of O=C1Nc2cc(CN3CCN(c4ccc(C(F)(F)F)cn4)CC3)cnc2N2CCC[C@@H]12 [Compound 36, (S)-3-((4-(5-(trifluoromethyl)pyridin-2-yl)piperazin-1-yl)methyl)-6a,7,8,9-tetrahydropyrido[3,2-e]pyrrolo[1,2-a]pyrazin-6(5H)-one], the PF50 is reported as “≧0”. O=C1Nc2cc(CN3CCN(c4cccc(F)c4)CC3)cnc2N2CCC[C@@H]12 [Compound 38, (S)-3-((4-(3-fluorophenyl)piperazin-1-yl)methyl)-6a,7,8,9-tetrahydropyrido[3,2-e]pyrrolo[1,2-a]pyrazin-6(5H)-one] was tested, and the PF50 was “≧0”. O=C1Nc2cc(CN3CCN(c4nc5ccccc5[nH]4)CC3)cnc2N2CCC[C@@H]12 [Compound 39, (S)-3-((4-(1H-benzo[d]imidazol-2-yl)piperazin-1-yl)methyl)-6a,7,8,9-tetrahydropyrido[3,2-e]pyrrolo[1,2-a]pyrazin-6(5H)-one] was tested, and the PF50 was “≧0”. O=C1Nc2cc(CN3CCN(c4ccc(I)cc4)CC3)cnc2N2CCC[C@@H]12 [Compound 40, (S)-3-((4-(4-iodophenyl)piperazin-1-yl)methyl)-6a,7,8,9-tetrahydropyrido[3,2-e]pyrrolo[1,2-a]pyrazin-6(5H)-one] showed a PF50 of over 10. O=C1Nc2cc(CN3CCN(c4nc5ccccc5o4)CC3)cnc2N2CCC[C@@H]12 [Compound 41, (S)-3-((4-(benzo[d]oxazol-2-yl)piperazin-1-yl)methyl)-6a,7,8,9-tetrahydropyrido[3,2-e]pyrrolo[1,2-a]pyrazin-6(5H)-one] was tested, and the PF50 was “≧0”. With O=C1Nc2cc(CN3CCN(c4cc(F)cc(F)c4)CC3)cnc2N2CCC[C@@H]12 [Compound 46, (S)-3-((4-(3,5-difluorophenyl)piperazin-1-yl)methyl)-6a,7,8,9-tetrahydropyrido[3,2-e]pyrrolo[1,2-a]pyrazin-6(5H)-one] the PF50 was “≧0”. In the case of O=C1Nc2cc(CN3CCN(c4ccc(C(F)(F)F)cc4)CC3)cnc2N2CCC[C@@H]12 [Compound 48, (S)-3-((4-(4-(trifluoromethyl)phenyl)piperazin-1-yl)methyl)-6a,7,8,9-tetrahydropyrido[3,2-e]pyrrolo[1,2-a]pyrazin-6(5H)-one], the PF50 is reported as “≧0”. For O=C1Nc2cc(CN3CC=C(c4ccc(Cl)cc4)CC3)cnc2N2CCC[C@H]12 [Compound 49, (R)-3-((4-(4-chlorophenyl)-5,6-dihydropyridin-1(2H)-yl)methyl)-6a,7,8,9-tetrahydropyrido[3,2-e]pyrrolo[1,2-a]pyrazin-6(5H)-one], the PF50 was “≧0”. With O=C1Nc2cc(CN3CCN(c4ccc(Cl)cc4)CC3)cnc2N2CCC[C@H]12 [Compound 50, (R)-3-((4-(4-chlorophenyl)piperazin-1-yl)methyl)-6a,7,8,9-tetrahydropyrido[3,2-e]pyrrolo[1,2-a]pyrazin-6(5H)-one] the PF50 was “≧0”. In the case of O=C1Nc2cc(CN3CCC(c4ccc(Cl)cc4)CC3)cnc2N2CCC[C@H]12 [Compound 51, (R)-3-((4-(4-chlorophenyl)piperidin-1-yl)methyl)-6a,7,8,9-tetrahydropyrido[3,2-e]pyrrolo[1,2-a]pyrazin-6(5H)-one], the PF50 is reported as “≧0”. CC(C)NC(=O)c1ccc(N2CCN(Cc3cnc4c(c3)NC(=O)[C@@H]3CCCCN43)CC2)nc1 [Compound 76, (S)—N-isopropyl-6-(4-((6-oxo-6,6a,7,8,9,10-hexahydro-5H-dipyrido[1,2-a:3′,2′-e]pyrazin-3-yl)methyl)piperazin-1-yl)nicotinamide] was tested, and the PF50 was “≧0”. In the case of CCNC(=O)c1ccc(N2CCN(Cc3cnc4c(c3)NC(=O)[C@@H]3CCCCN43)CC2)nc1 [Compound 78, (S)—N-ethyl-6-(4-((6-oxo-6,6a,7,8,9,10-hexahydro-5H-dipyrido[1,2-a:3′,2′-e]pyrazin-3-yl)methyl)piperazin-1-yl)nicotinamide], the PF50 is reported as over 10. Work on O=C(NC1CC1)c1ccc(N2CCN(Cc3cnc4c(c3)NC(=O)[C@@H]3CCCCN43)CC2)nc1 [Compound 79, (S)—N-cyclopropyl-6-(4-((6-oxo-6,6a,7,8,9,10-hexahydro-5H-dipyrido[1,2-a:3′,2′-e]pyrazin-3-yl)methyl)piperazin-1-yl)nicotinamide] yielded a PF50 of over 10. N#Cc1ccc(N2CCN(Cc3cnc4c(c3)NC(=O)[C@@H]3CSCCN43)CC2)nc1 [Compound 89, (R)-6-(4-((6-oxo-5,6,6a,7,9,10-hexahydropyrido[3,2-e][1,4]thiazino[4,3-a]pyrazin-3-yl)methyl)piperazin-1-yl)nicotinonitrile] gave a PF50 of over 10.
